How the values were obtained:
E. coli = assay: In vitro bacterial growth in plasma from transfused mice; type: cell-based
Method: Results shown in FIG. 15A are representative of two experiments. C57BL/6 mice were infused with a sub-clinical dose of LPS (E. coli 0111:B4; 30 μg per mouse by tail vein injection) followed by transfusion of 400 μL of fresh RBCs or stored RBCs. Mice were sacrificed at 24-hour post-transfusion and plasma cytokines measured (n=5 per group). *P=0.008, **P=0.003 as compared to mice infused LPS+ stored RBCs. To obtain the results shown in FIG. 15B, plasma (100 μL) was obtained from mice 2-hours post-transfusion with 400 μL of fresh RBCs (n=15), stored RBCs (n=24), stored RBC-derived supernatant (n=12), washed stored RBCs (n=13), or ghosts prepared from stored RBCs (n=8). Plasma was also obtained from control untransfused mice (n=14) or 24-hours post-transfusion with stored RBCs (n=8). Samples were incubated at 37° C. with shaking with about 1×10^6 CFU of E. coli, as labeled. Bacterial growth was monitored every 30 minutes by absorbance at 600 nm for up to 5 hours. […] To obtain the results shown in FIG. 15C, pooled plasma samples (100 μL) from mice 2 hours after transfusion with 400 μL of fresh RBCs or stored RBCs were supplemented with either ferric citrate (20 μM), sodium citrate (20 μM), bovine serum albumin (BSA; 80 μM), or protoporphyrin IX (20 μM), and then incubated at 37° C. with shaking with ˜1×10^6 CFU of E. coli. Bacterial growth was monitored every 30 minutes by absorbance at 600 nm for up to 5 hours in replicates of 5 per group. […] To obtain the results shown in FIG. 15D, pooled plasma (n=4) were incubated with the iron chelator, DFO (20 μM), or with the iron-chelated form of DFO, ferroxamine (FO) (20 μM) and inoculated with E. coli as shown for the previous experiment. […] To obtain the results shown in FIG. 15E, pooled plasma (n=5) was incubated with the iron chelator, 2,2′-dipyridyl (400 μM), with or without ferric citrate (133 μM) and inoculated with E. coli, as shown for the previous experiment. […] Results are representative of at least 2 experiments and are shown as mean (±SEM). Note that the absence of an error bar is indicative of highly reproducible replicates with pooled plasma.
A pathogenic strain of E. coli, obtained from an anonymous patient with a urinary tract infection, was used. For each experiment, a sample from a frozen stock of this E. coli was inoculated into Nutrient Broth (Difco, BD Biosciences) and grown to mid-log phase (about 3 hours). Bacteria were then washed twice in PBS and re-suspended to about 200,000 colony forming units (CFU)/μL. Five microliters of bacterial suspension were then added to 100 μL of heparinized plasma in a 96-well EIA/RIA plate (Costar, Sigma). Bacterial growth was measured by absorbance at 600 nm. In some experiments, 20 μM of ferric citrate or sodium citrate (Sigma), bovine serum albumin, 2,2′-dipyridyl (all from Sigma-Aldrich), protoporphyrin IX (Frontier Scientific, Logan, Utah), or DFO were added to plasma before bacterial inoculation.
Significance between two means was calculated using a two-tailed Mann-Whitney U test. Significance relevant to bacterial growth in vitro was determined by converting each growth curve to an area under the curve (AUC) value followed by a 2-tailed Mann-Whitney U test to compare mean AUC for each group. A value for P less than 0.05 was considered significant. Statistical analysis was performed using Prism 5 (GraphPad Software, Inc., La Jolla, Calif.).

[1] = tested on: pro-inflammatory response induced by stored RBC transfusions; assay: DFO or FO infusion immediately before stored RBC transfusion, plasma cytokine/chemokine levels (FIG. 16A, 19); type: in vivo, mice; conditions: 2 hours
Method: To obtain the results shown in FIG. 16A, mice were pretreated with a PBS vehicle control (n=28) or with 3 mg of DFO, with (n=15) or without (n=31) the addition of equimolar ferric citrate, immediately before transfusion with stored RBCs (400 μL). Mice were sacrificed 2 hours after transfusion, and plasma cytokine levels were measured; *P<0.05; **P<0.01; ***P<0.001 compared with mice infused with PBS vehicle and transfused stored RBCs. To obtain the results shown in FIG. 16B, bioluminescence was quantified for 24 hours after transfusion over the hepatosplenic region of SAA1-luciferase reporter mice transfused with 200 μL of fresh RBCs (n=3; •), the PBS vehicle control and stored RBCs (n=3; ▪), or 3 mg of DFO and stored RBCs (n=6; ▴); P=0.095 at 4 and 6 hours after transfusion comparing vehicle-treated and DFO-treated mice. […]
Mice were untreated or pretreated with 3 mg of DFO immediately before stored RBC transfusion (400 μL; n=14 per group). Mice were sacrificed 2-hours post-transfusion and plasma cytokine/chemokine levels measured. […]
RBCs (200 or 400 μL at 17.0-17.5 g/dL of hemoglobin; 1 or 2 equivalent human units, respectively) were transfused through the retro-orbital plexus of isoflurane-anesthetized mice. […] Survival was calculated by comparing the ratio of Dil- to DiO-labeled RBCs in the sample to the ratio in the transfuse itself. […]

[2] = in vivo; cited from earlier work
TNF-α = conditions: LPS-challenged mice; reference [119]; cited from earlier work
[3] = added to pooled plasma from mice transfused with fresh RBCs, 20 μM (bovine serum albumin 80 μM)

c1ccc(-c2ccccn2)nc1 [2,2′-dipyridyl]
bacterial growth (E. coli; 2,2′-dipyridyl 400 μM in pooled plasma from mice transfused with stored RBCs): greater inhibition of bacterial growth
inhibitory effect on bacterial growth (E. coli; 2,2′-dipyridyl preincubated with a one-third molar ratio of ferric citrate (133 μM)): abrogated

CC(=O)N(O)CCCCCNC(=O)CCC(=O)N(O)CCCCCNC(=O)CCC(=O)N(O)CCCCCN [DFO, deferoxamine]
plasma IL-6 levels ([1]; 3 mg (about 120 mg/kg) DFO i.v. immediately before stored RBCs, mean±s.e.m., without DFO 212.8±30.8, P=0.005): 98.4 ± 10.1 pg/mL
t1/2 [2]: 6 h

CC(=O)N([O-])CCCCCNC(=O)CCC(=O)N([O-])CCCCCNC(=O)CCC(=O)N([O-])CCCCCN.[Fe+3] [FO, ferroxamine]
proinflammatory cytokine response ([1]; 3 mg DFO, or FO (equimolar DFO and ferric citrate), before stored RBCs (400 μL)): as effective as DFO
bacterial growth (E. coli; 20 μM added to pooled plasma from mice transfused with stored RBCs, absorbance at 600 nm up to 5 hours): prevented the inhibition of bacterial growth
TNF-α levels (TNF-α): reduced TNF-α levels to a similar extent

O=C(O)c1ccc(-n2nc(-c3ccccc3O)nc2-c2ccccc2O)cc1 [deferasirox]
t1/2 [2]: 8 to 16 h

O=C([O-])CC(O)(CC(=O)[O-])C(=O)[O-].[Na+].[Na+].[Na+] [sodium citrate]
bacterial growth (E. coli; [3]): not

bovine serum albumin: bovine serum albumin control supplement
bacterial growth (E. coli; [3]): not

ferric citrate [iron citrate]
bacterial growth (E. coli; [3]): promoted to a similar level as in plasma from mice transfused with stored RBCs
